Results as given in patent publication US4137380A, “Polyester granules and process” (priority 1972, dated 1979).
Where two headings read alike, the source gives them in different places.

Assays:
[1] = Dissociation constant in water (pKa value) of amine; type: physicochemical
From the text: If more than one type of amine group is present in the molecule then the relevant pKa value is that of the most basic amine group.

[2] = Relative water solubility of amine; settings: amine base
[3] = amine base, in water, read-out: pKa

| Compound | pKa [1, 3] | Rel. W. Sol [2] | pKa ([1]; water) |
| --- | --- | --- | --- |
| C=C(C)C(=O)OCCN(C)C [DMAEMA, dimethylaminoethylmethacrylate] | 5.4 | high |  |
| Nc1ccccc1 [aniline] |  | insoluble |  |
| NCCCCCCCCCCCCN [dodecylene diamine] |  | insoluble | 11.8 |
| CCN [ethylamine] |  | high |  |
| NCCN [ethylene diamine] |  | high |  |
| Cc1ccccc1N [o-toluidine] | 6 | insoluble |  |
| vinyl pyridine |  |  | 5.4 |
